Calls of active or inactive are those of the source. The calls are words filed in the database; no cut-off is given here.
How the values were obtained:
HepG2 = assay: Inhibition of insulin-resistance in insulin-resistant human HepG2 cells assessed as increase in AKT phosphorylation pretreated for 24 hrs followed by compound washout and further addition of insulin measured after 20 mins by Western blot analysis; format: functional, cell-based; details: dose 0.625-2.5 µM
Mus musculus [1] = assay: Hypoglycemic activity in BKD db/db mouse assessed as decrease in blood glucose level at 40 to 80 mg/kg/day, po for 6 weeks by OGTT method; format: functional, organism-based; details: dose 40-80 mg/kg/day
Mus musculus [2] = assay: Hypoglycemic activity in BKD db/db mouse assessed as increase in AKT phosphorylation in skeletal muscle at 40 to 80 mg/kg/day, po for 8 weeks by Western blot analysis; format: functional, organism-based; details: dose 40-80 mg/kg/day
[3] = Toxicity in BKD db/db mouse assessed as effect on liver weight at 40 to 80 mg/kg/day, po qd for 8 weeks; format: organism-based; details: in vivo, 1344 h, dose 40-80 mg/kg/day
Hepatocyte = assay: Inhibition of insulin-resistance in insulin-resistant C57BL/J mouse […] primary hepatocytes assessed as increase in AKT phosphorylation pretreated for 24 hrs followed by compound washout and further addition of insulin measured after 20 mins by Western blot analysis; format: functional, cell-based; details: dose 0.625-2.5 µM
[4] = Acute toxicity in Kunming mouse assessed as behavioural changes at 2000 mg/kg, po measured for 14 days; format: organism-based; details: in vivo, 336 h, time 14 day
Mus musculus [5] = assay: Hypoglycemic activity in BKD db/db mouse assessed as reduction in lipid droplet accumulation in liver at 40 to 80 mg/kg/day, po for 8 weeks by H and E staining based analysis; format: functional, organism-based; details: dose 40-80 mg/kg/day
[6] = molecular target: T1, Tyrosine-protein phosphatase non-receptor type 2 (Homo sapiens, UniProt P17706); assay: Inhibition of TCPTP (unknown origin) using pNPP as substrate incubated for 30 mins by spectrophotometry
T1 sequence (P17706 whole entry): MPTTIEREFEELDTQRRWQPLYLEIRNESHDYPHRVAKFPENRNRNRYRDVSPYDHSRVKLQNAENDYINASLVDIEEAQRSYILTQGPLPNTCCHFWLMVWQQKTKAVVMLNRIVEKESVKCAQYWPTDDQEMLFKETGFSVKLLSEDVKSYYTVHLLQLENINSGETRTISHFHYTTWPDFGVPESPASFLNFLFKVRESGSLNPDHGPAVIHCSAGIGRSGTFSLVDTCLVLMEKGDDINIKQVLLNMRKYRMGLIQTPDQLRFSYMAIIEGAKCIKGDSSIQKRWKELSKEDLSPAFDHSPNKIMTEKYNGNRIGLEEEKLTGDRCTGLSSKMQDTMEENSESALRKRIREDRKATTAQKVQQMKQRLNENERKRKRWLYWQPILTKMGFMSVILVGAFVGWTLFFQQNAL

[7] = Acute toxicity in Kunming mouse assessed as animal mortality at 2000 mg/kg, po measured for 14 days; format: organism-based; details: in vivo, 336 h, time 14 day
[8] = molecular target: T2, Tyrosine-protein phosphatase non-receptor type 11 (Homo sapiens, UniProt Q06124); assay: Inhibition of SHP2 (unknown origin) using pNPP as substrate incubated for 30 mins by spectrophotometry
T2 sequence (Q06124 whole entry): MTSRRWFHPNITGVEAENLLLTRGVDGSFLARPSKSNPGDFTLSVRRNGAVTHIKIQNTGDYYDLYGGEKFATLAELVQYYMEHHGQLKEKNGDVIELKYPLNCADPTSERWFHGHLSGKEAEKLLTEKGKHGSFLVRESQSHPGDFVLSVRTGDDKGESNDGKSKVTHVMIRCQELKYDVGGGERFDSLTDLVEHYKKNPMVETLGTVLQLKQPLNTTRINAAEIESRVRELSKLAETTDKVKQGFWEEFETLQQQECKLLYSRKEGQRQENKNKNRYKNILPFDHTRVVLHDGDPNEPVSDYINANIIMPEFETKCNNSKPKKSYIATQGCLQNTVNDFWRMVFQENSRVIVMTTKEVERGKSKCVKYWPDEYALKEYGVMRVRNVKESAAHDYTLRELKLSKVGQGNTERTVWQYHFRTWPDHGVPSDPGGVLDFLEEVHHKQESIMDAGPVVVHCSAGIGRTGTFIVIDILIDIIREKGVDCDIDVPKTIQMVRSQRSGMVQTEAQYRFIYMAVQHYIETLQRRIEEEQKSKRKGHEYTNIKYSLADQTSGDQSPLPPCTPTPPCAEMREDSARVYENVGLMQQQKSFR

3T3-L1 = assay: Inhibition of insulin-resistance in insulin-resistant mouse 3T3-L1 cells assessed as increase in AKT phosphorylation pretreated for 24 hrs followed by compound washout and further addition of insulin measured after 20 mins by Western blot analysis; format: functional, cell-based; details: dose 0.625-2.5 µM
[9] = molecular target: T3, Tyrosine-protein phosphatase non-receptor type 1 (Homo sapiens, UniProt P18031); assay: Allosteric inhibition of PTP1B (unknown origin) using pNPP as substrate incubated for 30 mins by spectrophotometry
T3 sequence (P18031 whole entry): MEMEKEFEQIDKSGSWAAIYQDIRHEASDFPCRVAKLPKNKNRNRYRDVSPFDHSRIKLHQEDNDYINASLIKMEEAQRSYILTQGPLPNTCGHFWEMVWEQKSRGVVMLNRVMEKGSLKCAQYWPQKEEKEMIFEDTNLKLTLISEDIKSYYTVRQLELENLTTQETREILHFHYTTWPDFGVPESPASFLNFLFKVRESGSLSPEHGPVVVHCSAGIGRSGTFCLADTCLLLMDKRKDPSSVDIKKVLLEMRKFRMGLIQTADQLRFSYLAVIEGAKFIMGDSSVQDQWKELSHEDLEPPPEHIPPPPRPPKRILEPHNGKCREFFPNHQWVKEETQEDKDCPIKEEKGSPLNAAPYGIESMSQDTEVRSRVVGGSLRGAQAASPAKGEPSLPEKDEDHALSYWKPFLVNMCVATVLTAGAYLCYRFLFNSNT

[10] = Acute toxicity in Kunming mouse assessed as change in cell morphology of heart at 2000 mg/kg, po measured for 14 days by H and E staining based analysis; format: organism-based; details: in vivo, 336 h, time 14 day

Question: Which results are given for `CCOc1ccc(Oc2ccc(C(=O)/C=C/c3cc(O)c(O)c(Br)c3Br)cc2)cc1`?
Answer: inhibition (HepG2): Dose-dependent-effect; Activity (Mus musculus [1]): Active; Activity (Mus musculus [2]): Active; Activity [3]: Non-toxic; inhibition (Hepatocyte): Dose-dependent-effect; Activity [4]: Non-toxic; Activity (Mus musculus [5]): Active; IC50 [6]: 15.8 µM; Activity [7]: Non-toxic; IC50 [8]: > 20 µM; inhibition (3T3-L1): Dose-dependent-effect; IC50 [9]: 1.06 µM; Activity [10]: Non-toxic

From ChEMBL document CHEMBL6096654, “Allosteric inhibition of PTP1B by bromocatechol-chalcone derivatives” (Eur J Med Chem, 2025)
